{"source": "patent US11225505B2", "about": "“Antimicrobial polymyxin derivative compounds” (MONASH UNIVERSITY, priority 2015, dated 2022)", "key": {"[1]": {"tested_on": "A. baumannii FADDI-AB030", "experiment": "In vivo efficacy in a neutropenic mouse lung infection model", "set-up": "species or system Acinetobacter baumannii", "details": "24 h", "procedure": "The in vivo efficacy of several compounds was examined in a neutropenic mouse lung infection model against the clinical isolate A. baumannii FADDI-AB030. This Gram-negative isolate is highly multi drug-resistant as illustrated in Table 7.\nFADDI-AB030 was subcultured on nutrient agar plates from the −80° C. stock. One colony of the bacterial strain was dispersed in 10-mL CAMHB and incubated overnight. On day 2, an aliquot (0.2 mL) of overnight culture suspension was dispersed in 20-mL CAMHB and incubated for 1.5-2.5 h for production of early log-phase growth bacterial culture. The bacteria in the early log-phase growth suspension were concentrated by centrifugation (3,220 g for 10 min) and re-suspended in sterile 0.9% saline for inoculation into mice. The bacterial cell concentration (colony forming unit [CFU]/mL) in saline was estimated by determining the optical density (OD) of the suspension at 600 nm, and confirmed by plating the suspension on nutrient agar plates. […]\nLung infection was produced as follows. […] Bacterial burdens in lungs were determined at 2 h after inoculation (untreated controls) and 24 h later (untreated controls and compound-treated mice). […] The bacterial colonies on the agar plate were counted and the log10 CFU/lung in each mouse was calculated (FIG. 1). […]"}, "[2]": {"tested_on": "mice", "experiment": "Acute toxicity observed in the mouse lung infection study", "assay_type": "in vivo", "details": "up to 180 mg/kg total dose (four times the polymyxin B dose)", "procedure": "Lung infection was produced as follows. Mice (n=4) were anaesthetised by inhalation of 2% to 5% isoflurane in oxygen and rested in the supine position against a restraining board which was angled at 60-70° from the horizontal. Each mouse was inoculated with 25 μL of bacterial suspension in saline (˜10^6 bacterial cells in early logarithmic growth phase) sprayed directly into the trachea above the carina using a MicroSprayer® Aerosolizer (model IA-1C; Penn-Century, Philadelphia, Pa., USA). After discharge of the bacterial aerosol, mice were held upright on the restraining board for 2 min and then placed on a warm pad for recovery from anaesthesia. Treatment with polymyxin B and Compound 1, 3, 6 and 18 (intraperitoneal injection of dose-fractionated regimens across the daily dose) was initiated 2 h following inoculation. […] This was the highest dose of polymyxin B that could be safely administered without adverse effects, i.e. acute toxicity. Bacterial burdens in lungs were determined at 2 h after inoculation (untreated controls) and 24 h later (untreated controls and compound-treated mice). Animals were euthanised at 24 h by inhalation of overdose isoflurane. The skin on the chest and fore-paws of each animal was thoroughly cleansed with 70% ethanol and Betadine®. […] The bacterial colonies on the agar plate were counted and the log10 CFU/lung in each mouse was calculated (FIG. 1). […]"}, "[3]": {"tested_on": "mouse kidney", "details": "in vivo, 180 mg/kg", "excerpt": "Lesions were rated as follows: mild acute tubular damage with tubular dilation, prominent nuclei and a few pale tubular casts (Grade 1); severe acute tubular damage with necrosis of tubular epithelial cells and numerous tubular casts (Grade 2); acute cortical necrosis/infarction of tubules and glomeruli with or without papillary necrosis (Grade 3). The grades were given the following scores: grade 1=1, grade 2=4, and grade 3=10. The percentage of area of the kidney slice showing histological damage was scored as follows: <1%=0, 1 to <5%=1, 5 to <10%=2, 10 to <20%=3, 20 to <30%=4, 30 to <40%=5, and >40%=6. The overall kidney histological score was calculated as the product of the percentage score and grade score. These scores were then expressed as a semiquantitative score (Kidney Histological Score) on a scale of 0 to +5 for renal histological changes. […]\nLung infection was produced as follows. […] Bacterial burdens in lungs were determined at 2 h after inoculation (untreated controls) and 24 h later (untreated controls and compound-treated mice). […] The bacterial colonies on the agar plate were counted and the log10 CFU/lung in each mouse was calculated (FIG. 1).\nThe right kidney from each of the treated animals was removed and assessed for histological damage as described for Example 3. […]"}}, "note": "Where a SMILES comes first, the peptide text is derived from it. Bridges are numbered along the chain shown (N, C = ends). [ ]: non-standard residue; d: D form. The star is where a group is joined. X1 = O=C(c1ncc(Cl)cc1Cl)*; Dab = NCC[C@H](N)C(=O)O; Abu = CC[C@H](N)C(=O)O; Dap = NC[C@H](N)C(=O)O", "data": [{"smiles": "CC[C@@H]1NC(=O)[C@@H](CC(C)C)NC(=O)[C@H](CCN)NC(=O)[C@@H](NC(=O)[C@H](CN)NC(=O)[C@@H](NC(=O)[C@H](CCN)NC(=O)c2ncc(Cl)cc2Cl)[C@@H](C)O)CCNC(=O)[C@H]([C@@H](C)O)NC(=O)[C@H](CCN)NC(=O)[C@H](CCN)NC1=O", "note": "[Compound 1] (X1-[Dab]T[Dap][Dab][Dab][dL][Abu][Dab][Dab]T; lactam 4-C)", "values": [{"measurement": "in vivo antibacterial efficacy (bacterial burden in lung, FIG. 1) compared with polymyxin B at the same dose", "setting": "[1]; 45 mg/kg total, neutropenic mice", "result": "improved in vivo antibacterial efficacy"}, {"measurement": "bacterial cells in the lung (FIG. 2)", "setting": "[1]; total doses of 90 and 180 mg/kg", "result": "no longer detectable in the lung"}, {"measurement": "acute toxicity", "setting": "[2]", "result": "without any observable acute toxicity"}, {"measurement": "histological damage to the kidneys (in words)", "setting": "[3]", "result": "no histological damage"}]}]}
